Reference: patent US20170049100A1 (priority 2014, published 2017)
Converted amounts (≈) assume the structure as drawn.

System: resistant strain of Pythium sp.
Experiment: In vitro sensitivity of a resistant strain of Pythium sp. (mycelium growth, optical density at 590 nm)
Assay type: cell-based
Details: 168 h, 500 spores/mL, 7 days at 20° C., read-out: EC50 (effective concentration of the active ingredient which reduces the growth of the phytopathogen by 50%)

CCCCCCCCO [octanol, octan-1-ol]
EC50: 1.3 ng/mL (≈ 9.98 nM)
